“Also recorded” adds a separate entry of the source. Read-outs that look alike come from different tables or passages of the source.
Legend:
[1] = system: AGE formation (bovine serum albumin, methylglyoxal); experiment: In vitro antiglycation assay (BSA-methylglyoxal, AGE fluorescence); type: biochemical
Protocol: Methylglyoxal (14 mM), sodium azide (30 mM) in 0.1 M phosphate buffer, bovine serum albumin (10 mg/mL), and various concentrations of the compounds (prepared in 10% DMSO) were incubated under sterile conditions at 37 °C for 9 days. […] Standard rutin was used as a positive control and percent inhibition of AGE formation in the test sample versus control was calculated by using the following relation: % Inhibition = ⦋1−Fluorescence of test sample/Fluorescence of the control⦌×100

α-glucosidase [2] = target: T1, α-glucosidase (Saccharomyces cerevisiae, UniProt P53341); settings: for α-Glucosidase Inhibition IC50 (µM) ± (SEM): pH 6.8, 37 °C, PNP-G 0.7 mM, mean ± SEM, triplicate
T1 sequence (P53341 whole entry): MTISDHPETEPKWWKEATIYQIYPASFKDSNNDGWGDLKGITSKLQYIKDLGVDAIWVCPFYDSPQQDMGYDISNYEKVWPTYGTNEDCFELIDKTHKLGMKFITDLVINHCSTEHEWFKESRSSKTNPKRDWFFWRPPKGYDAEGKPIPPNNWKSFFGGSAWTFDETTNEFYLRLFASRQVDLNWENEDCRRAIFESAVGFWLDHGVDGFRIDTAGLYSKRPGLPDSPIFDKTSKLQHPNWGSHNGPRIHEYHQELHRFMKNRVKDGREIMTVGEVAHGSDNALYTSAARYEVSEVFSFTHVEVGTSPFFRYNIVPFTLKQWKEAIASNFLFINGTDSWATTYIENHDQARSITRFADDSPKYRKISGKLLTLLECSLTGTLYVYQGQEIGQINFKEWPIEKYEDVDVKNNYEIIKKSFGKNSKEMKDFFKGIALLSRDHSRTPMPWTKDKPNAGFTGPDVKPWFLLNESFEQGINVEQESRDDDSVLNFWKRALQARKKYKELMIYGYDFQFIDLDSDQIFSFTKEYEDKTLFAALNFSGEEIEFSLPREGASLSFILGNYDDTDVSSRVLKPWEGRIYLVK
Protocol: (§1) α-Glucosidase inhibitory potential of test compounds was assayed by using 0.1 M phosphate buffer (pH 6.8) at 37 °C. The enzyme (0.2 U/mL) in phosphate buffer was incubated with selected concentrations of test compounds at 37 °C for 15 min. The substrate, p-nitrophenyl-α-D-glucopyranoside (PNP-G) (0.7 mM) was added in each well of 96-well plate and change in absorbance was monitored at 400 nm for 30 min. […] The increase in absorption due to the hydrolysis of PNP-G by α-glucosidase was recorded continuously with the spectrophotometer (Spectra Max, MD, USA.) and percent inhibition was calculated by using the following formula: % Inhibition = 100−⦋OD of test sample/OD of the control×100⦌
(§2) The experiments were performed by using 96-well microplate reader (SpectraMax M2, Molecular Devices, CA, USA) and the results were analyzed by SoftMaxPro 4.8 and MS-Excel. The experiments were repeated in triplicate, and results were presented as means ± SEM. IC50 values were determined by using EZ-FIT, Enzyme kinetics software by Perrella Scientific, Inc., Amherst, MA, USA.

α-glucosidase [3] = target: T1, α-glucosidase; experiment: biochemical
Protocol: as §1, §2

[4] = system: Sprague-Dawley normoglycemic rat model; set-up: method as in PMID 24566854; settings: cited from earlier work

Molecule	α-glucosidase inhibitory activity (in words) (α-glucosidase [2])	α-Glucosidase Inhibition IC50 (µM) ± (SEM) (α-glucosidase [2])	Antiglycation IC50 (µM) ± (SEM) ([1]; 37 °C, 9 days, mean ± SEM)	IC50 (α-glucosidase [3]) [µM]	also measured
CC1=C(CO)C(=O)O[C@@H]([C@@](C)(O)[C@@]2(O)CC[C@@]3(O)[C@@H]4CC=C5C=CCC(=O)[C@]5(C)[C@H]4CC[C@]23C)C1 [Compound 6, ajugin E]	did not possess α-glucosidase inhibitory activity	Inactive	–	–	Antiglycation IC50 (µM) ± (SEM) [1]: Inactive
CC1=C(CO)C(=O)O[C@@H]([C@@](C)(O)[C@H]2CC[C@@]3(O)[C@@H]4CC=C5C=CCC(=O)[C@]5(C)[C@H]4CC[C@]23C)C1 [Compound 5, 27-hydroxywithanolide I]	–	–	Inactive	66.7 ± 3.6	–
17β-hydroxywithanolide K	–	–	–	–	anti-inflammatory activity [4]: potent; antihyperglycemic activity [4]: potent
CC1=C(C)C(=O)O[C@@H]([C@@](C)(O)[C@@]2(O)CC[C@@]3(O)[C@@H]4CCC5=CC=CC(=O)[C@]5(C)[C@H]4CC[C@]23C)C1 [Compound 4, withaperuvin C]	–	–	Inactive	407 ± 4.5	–
CC1=C(C)C(=O)O[C@@H]([C@@](C)(O)[C@@]2(O)CC[C@@]3(O)[C@@H]4CC=C5CC=CC(=O)[C@]5(C)[C@H]4CC[C@]23C)C1 [Compound 2, withanolid J]	–	–	Inactive	683 ± 0.94	–
CC1=C(C)C(=O)O[C@@H]([C@](C)(O)[C@]2(O)CC[C@@]3(O)[C@@H]4C[C@H]5O[C@]56[C@@H](O)C=CC(=O)[C@]6(C)[C@H]4CC[C@]23C)C1 [4β-hydroxywithanolide E]	–	–	–	–	anti-inflammatory activity [4]: potent; antihyperglycemic activity [4]: potent
CC1=C(C)C(=O)O[C@@H]([C@@]2(C)O[C@@]34CC[C@@H]2[C@@]3(C)CC[C@H]2[C@H]4CC=C3C=CCC(=O)[C@@]32C)C1 [Compound 3, coagulin E]	did not possess α-glucosidase inhibitory activity	Inactive	Inactive	–	–
C[C@@H]1O[C@@H](OC[C@H]2O[C@@H](Oc3c(-c4ccc(O)c(O)c4)oc4cc(O)cc(O)c4c3=O)[C@H](O)[C@@H](O)[C@@H]2O)[C@H](O)[C@H](O)[C@H]1O [Rutin, rutin, reference compound]	–	–	–	–	IC50 ([1]; 37 °C, 9 days, mean ± SEM): 288.9 ± 1.84 µM
CC1=C(COC2OC(CO)C(O)C(O)C2O)C(=O)OC(C2(C)OC34CCC2C3(C)CCC2C4CC=C3CC(O)CC(=O)C32C)C1 (stereo not drawn) [Compound 1, 3β-Hydroxy-14R,20R-epoxy-1-oxowitha-5,24-dienolide-27-O-β-D glucopyranoside]	did not possess α-glucosidase inhibitory activity; also recorded: inactive	Inactive	–	–	Antiglycation IC50 (µM) ± (SEM) [1]: Inactive
